Results on three compounds are retold here after publication PMC9405846 (2022).

Assay [1] concerns Control (random sequence) (RNA, other) CUGAAGGCAGUCCGGUGCCCGGCCGGG
Briefly: electrochemical impedance (EIS). The following applies: 0.1 M KCl, 3 mM MgCl2; PBS, pH about 7, 15 min incubation; tested up to 500 mM.

Assay [2] relates to Aptamer 1 (Apt1) (RNA, aptamer) CCAUGUAAGCGCGGUACUCUUACGUGA
Put plainly: electrochemical impedance (EIS), Langmuir-Hill fit. To be noted: 0.1 M KCl, 3 mM MgCl2; PBS, pH about 7, 1 mM [Fe(CN)6]3-/4-, 15 min incubation.

Assay [3] relates to Aptamer 2 (Apt2) (RNA, aptamer) UCGCGUCUAGCCCAUUGAUAGGCCCGA
Briefly: electrochemical impedance (EIS), Langmuir-Hill fit. To be noted: 0.1 M KCl, 3 mM MgCl2; PBS, pH about 7, 1 mM [Fe(CN)6]3-/4-, 15 min incubation.

Assay [4] deals with Aptamer 3 (Apt3) (RNA, aptamer) UCCACGUGGUGCCAUACUCCGGCGUGG
Put plainly: electrochemical impedance (EIS), Langmuir-Hill fit. The following applies: 0.1 M KCl, 3 mM MgCl2; PBS, pH about 7, 1 mM [Fe(CN)6]3-/4-, 15 min incubation.

Assay [5] deals with Aptamer 4 (Apt4) (RNA, aptamer) CCUCUCAGGCUUGUACUGCCACGAGGA
Briefly: electrochemical impedance (EIS), Langmuir-Hill fit. To be noted: 0.1 M KCl, 3 mM MgCl2; PBS, pH about 7, 1 mM [Fe(CN)6]3-/4-, 15 min incubation; decimal comma as printed.

Assay [6] has as its system Aptamer 5 (Apt5) (RNA, aptamer) GCCCUGGGCCGCUCAUUCCCUCUGGCU
Put plainly: electrochemical impedance (EIS), Langmuir-Hill fit. To be noted: 0.1 M KCl, 3 mM MgCl2; PBS, pH about 7, 1 mM [Fe(CN)6]3-/4-, 15 min incubation.

In assay [7] the test system is Aptamer 1 (Apt1) (RNA, aptamer) CCAUGUAAGCGCGGUACUCUUACGUGA
Briefly: electrochemical impedance (EIS). The following applies: 0.1 M KCl, 3 mM MgCl2; 100 µM; response about 15 times lower than with NH4+.

Assay [8] deals with Aptamer 2 (Apt2) (RNA, aptamer) UCGCGUCUAGCCCAUUGAUAGGCCCGA
Put plainly: electrochemical impedance (EIS). To be noted: 0.1 M KCl, 3 mM MgCl2; 100 µM; response about 15 times lower than with NH4+.

The subject of assay [9] is Aptamer 3 (Apt3) (RNA, aptamer) UCCACGUGGUGCCAUACUCCGGCGUGG
Put plainly: electrochemical impedance (EIS). The following applies: 0.1 M KCl, 3 mM MgCl2; 100 µM; response about 15 times lower than with NH4+.

One may read the Kd as the free concentration of one partner at which half of the binding sites on the other are occupied at equilibrium, for simple one-to-one binding. Read a low Kd as a tighter complex. Consider `N`, for which the binding result in assay [1] is “no”. The Kd in assay [2] is 36.59 mM; in assay [3], 16.11 mM; in assay [4], 131 mM; in [5] it was 6,6 mM; in assay [6] it was 50 mM.
Regarding `CNC`, the binding result in assay [7], in assay [8] and in assay [9] was “weak” in each case.
In the case of `CN(C)C`, the binding entry in assay [7], in assay [8] and in assay [9] was “weak” throughout.
